The values below come from patent publication US20150148311A1, “NON-SYSTEMIC TGR5 AGONISTS” (Ardelyx, Inc., priority 2011, published 2015).

Experiment [1] deals with T1, endogenously expressed TGR5 in NCI H716 (Homo sapiens, UniProt Q8TDU6).
T1 construct: human caecum carcinoma cell line NCI-H716 which endogenously expresses human TGR5; endogenous in cells; host or cells: NCI-H716
T1 sequence (Q8TDU6 1-330): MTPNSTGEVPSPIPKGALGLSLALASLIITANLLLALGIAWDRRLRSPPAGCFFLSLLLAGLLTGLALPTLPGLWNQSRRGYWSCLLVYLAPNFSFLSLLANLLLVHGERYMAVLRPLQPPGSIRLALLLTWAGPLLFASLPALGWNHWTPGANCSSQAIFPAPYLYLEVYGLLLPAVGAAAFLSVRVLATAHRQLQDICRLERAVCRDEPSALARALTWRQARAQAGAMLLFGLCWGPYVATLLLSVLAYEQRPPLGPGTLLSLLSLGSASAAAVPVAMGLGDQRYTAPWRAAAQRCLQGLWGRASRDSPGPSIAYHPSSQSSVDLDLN
As to the kind of experiment: Cell-based TGR5 assay, NCI-H716 cells endogenously expressing human TGR5, cAMP by HTRF. The settings on record: 30 min at 37 C, 22 nM to 50 μM, read-out: pEC50 endogenously expressed TGR5 in NCI H716 (converted). Put shortly:
(§1)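 cAMP HTRF read-out, converted to concentration via standard curve, after a 30 min, 37 °C compound exposure in HBSS with 10 mM HEPES pH 7.4 and 0.5 mM IBMX, compounds serially diluted 3-fold from 10 mM DMSO stock then 100-fold. Cells: stable human TGR5 HEK293, or NCI-H716 expressing TGR5 endogenously.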
In general terms: In TR-FRET formats the signal depends on donor and acceptor labels being close together.

Experiment [2] deals with T2, human TGR5 (Homo sapiens, UniProt Q8TDU6).
T2 construct: expressed in transfected cells
T2 sequence (Q8TDU6 1-330): T1 sequence (Q8TDU6 1-330)
As to the kind of experiment: Cell-based TGR5 assay, HEK293 cells stably expressing human TGR5, cAMP by HTRF. The following applies: HEK293 cells stably expressing human TGR5, 30 min at 37 C, 0.05 nM to 10 μM; for EC50: read-out: pEC50 Human TGR5 (converted). Put shortly: as §1

`CN(C[C@H](O)[C@@H](O)[C@H](O)[C@H](O)CO)C(=O)NCCOc1cc(Cl)c(CNC2(C(=O)N3CCN(C4CC4)c4ccccc43)CC2)cc1Cl` [Example 185]: the EC50 was 1260 to 50100 nM in experiment [1] and 126 to 1000 nM in experiment [2].

For `CN(C[C@H](O)[C@@H](O)[C@H](O)[C@H](O)CO)C(=O)NCCCCOc1cc(Cl)c(CNC2(C(=O)N3CCN(C4CC4)c4ccccc43)CC2)cc1Cl` [Example 186], the EC50 was 1260 to 50100 nM in experiment [1] and 126 to 1000 nM in experiment [2].

`O=C(O)CCCOc1cc(Cl)c(CNC2(C(=O)N3CCN(C4CC4)c4ccccc43)CC2)cc1Cl` [Example 187]: the EC50 in experiment [1] was 1260 to 50100 nM; in experiment [2] it was 126 to 1000 nM.

Consider `CN(C[C@H](O)[C@@H](O)[C@H](O)[C@H](O)CO)C(=O)NCCOc1cc(Cl)c(CNC2(C(=O)N3CCN(C4CC4)c4ccccc43)CC2)cc1Cl` [Example 188], for which, in experiment [1], the EC50 was 126 to 1000 nM. Moreover, the “pEC50 Human TGR5” value in experiment [2] is given as “B (B is a pEC50 of 6-6.9)”.

`CN(C[C@H](O)[C@@H](O)[C@H](O)[C@H](O)CO)C(=O)CCCOc1cc(Cl)c(CN2CSC[C@H]2C(=O)N2CCN(C3CC3)c3ccccc32)cc1Cl` [Example 189]: the EC50 in experiment [1] is 126 to 1000 nM; in experiment [2], less than 100 nM.

In the case of `O=C(NCCCc1cc(Cl)c(CNC2(C(=O)N3CCN(C4CC4)c4ccccc43)CC2)cc1Cl)NCCOCCOCCNC(=O)NCCCc1cc(Cl)c(CNC2(C(=O)N3CCN(C4CC4)c4ccccc43)CC2)cc1Cl` [Example 212], the EC50 in experiment [1] and in experiment [2] was 1260 to 50100 nM in each case.

Take `CN(C[C@H](O)[C@@H](O)[C@H](O)[C@H](O)CO)C(=O)NCCCCc1ccc(Cl)c(CNC2(C(=O)N3CCN(C4CC4)c4ccccc43)CC2)c1` [Example 213]: the EC50 is 1260 to 50100 nM in experiment [1] and 126 to 1000 nM in experiment [2].

On to `CN(C[C@H](O)[C@@H](O)[C@@H](O)[C@H](O)CO)C(=O)NCCCc1cc(Cl)c(CNC2(C(=O)N3CCN(C4CC4)c4ccccc43)CC2)cc1Cl` [Example 214], for which the EC50 in experiment [1] and in experiment [2] was 126 to 1000 nM each time.

`CN(C[C@H](O)[C@@H](O)[C@H](O)[C@H](O)CO)C(=O)CCc1ccc(Cl)c(CN2CSC[C@H]2C(=O)N2CCN(C3CC3)c3ccccc32)c1` [Example 215]: the results for the EC50 in experiment [1] and in experiment [2] were 1260 to 50100 nM and 126 to 1000 nM, respectively.

Regarding `CN(C[C@H](O)[C@@H](O)[C@H](O)[C@H](O)CO)C(=O)NCCCc1ccc(Cl)c(CN2CSC[C@H]2C(=O)N2CCN(C3CC3)c3ccccc32)c1` [Example 217], the EC50 is 1260 to 50100 nM in experiment [1] and 126 to 1000 nM in experiment [2].

Take `CN(C[C@H](O)[C@@H](O)[C@H](O)[C@H](O)CO)C(=O)CCCCc1cc(Cl)c(CNC2(C(=O)N3CCN(C4CC4)c4ccccc43)CC2)cc1Cl` [Example 219]: the EC50 in experiment [1] and in experiment [2] was less than 100 nM in each case.

`CN(C[C@H](O)[C@@H](O)[C@@H](O)[C@H](O)CO)C(=O)CCCCc1cc(Cl)c(CNC2(C(=O)N3CCN(C4CC4)c4ccccc43)CC2)cc1Cl` [Example 220]: the EC50 in experiment [1] and in experiment [2] was less than 100 nM each time.

For the compound `O=C(N1CCN(C2CC2)c2ccccc21)C1(OCc2cc(Cl)ccc2Cl)CCCCC1` [Example 242], the EC50 in experiment [1] was greater than 50100 nM; in experiment [2], 126 to 1000 nM.

Regarding `CC(C(=O)N1CCN(C2CC2)c2ccccc21)N(C)Cc1cc(Cl)ccc1Cl` (stereo not drawn) [Example 243], the EC50 in experiment [1] is 1260 to 50100 nM; in experiment [2], 126 to 1000 nM.

`CC(C(=O)N1CCN(C2CC2)c2ccccc21)N1CCc2ccc(Cl)cc2C1` (stereo not drawn) [Example 244]: the EC50 in experiment [1] and in experiment [2] was 1260 to 50100 nM throughout.

As to `Cc1ccc(Cl)c(CN2CCC[C@H]2C(=O)N2CCN(C3CC3)c3ccccc32)c1F` [Example 245], the EC50 in experiment [1] and in experiment [2] was 1260 to 50100 nM in each case.

For the compound `COc1ccc(COC2(C(=O)N3CCN(C4CC4)c4ccccc43)CC2)c(Cl)c1` [Example 246], the EC50 in experiment [1] is 1260 to 50100 nM; in experiment [2], 126 to 1000 nM.

As to `O=C(N1CCN(C2CC2)c2ccccc21)C1(OCc2c(Cl)cccc2Cl)CC1` [Example 247], the EC50 in experiment [1] and in experiment [2] was 1260 to 50100 nM throughout.
